Measured values reported in ChEMBL document CHEMBL2074081, “Functional characteristics and membrane localization of rat multispecific organic cation transporters, OCT1 and OCT2, mediating tubular secretion of cationic drugs” (J Pharmacol Exp Ther, 1998).

T1: Solute carrier family 22 member 1 (Rattus norvegicus, UniProt Q63089)
T1 sequence (Q63089 whole entry): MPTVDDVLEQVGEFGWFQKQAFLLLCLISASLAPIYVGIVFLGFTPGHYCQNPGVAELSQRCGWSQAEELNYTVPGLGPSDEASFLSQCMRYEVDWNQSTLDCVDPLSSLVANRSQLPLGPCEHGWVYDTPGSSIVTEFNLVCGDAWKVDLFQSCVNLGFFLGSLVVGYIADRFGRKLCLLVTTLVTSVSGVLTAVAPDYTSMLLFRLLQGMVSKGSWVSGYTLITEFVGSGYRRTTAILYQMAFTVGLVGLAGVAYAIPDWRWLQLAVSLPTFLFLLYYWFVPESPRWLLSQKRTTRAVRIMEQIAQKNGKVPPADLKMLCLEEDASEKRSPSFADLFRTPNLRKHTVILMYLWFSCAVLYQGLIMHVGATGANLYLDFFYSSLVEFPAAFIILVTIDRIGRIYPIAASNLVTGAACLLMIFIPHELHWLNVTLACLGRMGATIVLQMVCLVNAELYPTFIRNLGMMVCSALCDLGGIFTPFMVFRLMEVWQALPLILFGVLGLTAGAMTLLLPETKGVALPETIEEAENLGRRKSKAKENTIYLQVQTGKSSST

T2: Solute carrier family 22 member 2 (Rattus norvegicus, UniProt Q9R0W2)
T2 sequence (Q9R0W2 whole entry): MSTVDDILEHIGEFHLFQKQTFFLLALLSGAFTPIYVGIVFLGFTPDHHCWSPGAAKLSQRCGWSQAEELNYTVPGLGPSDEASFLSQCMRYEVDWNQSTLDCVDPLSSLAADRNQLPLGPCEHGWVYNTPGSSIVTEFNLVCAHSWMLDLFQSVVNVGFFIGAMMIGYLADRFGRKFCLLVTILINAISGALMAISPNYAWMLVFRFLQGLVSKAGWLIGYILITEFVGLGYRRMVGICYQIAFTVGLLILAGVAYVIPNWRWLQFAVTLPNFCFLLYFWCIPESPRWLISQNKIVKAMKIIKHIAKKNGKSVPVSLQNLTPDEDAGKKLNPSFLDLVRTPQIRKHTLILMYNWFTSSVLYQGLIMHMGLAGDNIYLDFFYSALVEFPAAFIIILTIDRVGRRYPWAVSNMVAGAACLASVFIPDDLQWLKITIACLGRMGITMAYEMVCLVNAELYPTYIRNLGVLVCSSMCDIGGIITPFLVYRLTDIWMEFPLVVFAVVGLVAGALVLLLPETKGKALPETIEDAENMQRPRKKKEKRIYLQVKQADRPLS

B1: Solute carrier family 22 member 1 (Rattus norvegicus) (protein)
chain: T1 sequence (Q63089 whole entry)
B2: Solute carrier family 22 member 2 (Rattus norvegicus) (protein)
chain: T2 sequence (Q9R0W2 whole entry)

How the values were obtained:
[1] = target: T1, Solute carrier family 22 member 1; experiment: TP_TRANSPORTER: inhibition of TEA uptake (basolateral to cell) in OCT1-expressing MDCK cells; type: functional, cell-based
[2] = target: T2, Solute carrier family 22 member 2; experiment: TP_TRANSPORTER: inhibition of TEA uptake (basolateral to cell) in OCT2-expressing MDCK cells; type: functional, cell-based
[3] = target: T2, Solute carrier family 22 member 2; experiment: TP_TRANSPORTER: inhibition of TEA uptake (apical to cell) in OCT2-expressing MDCK cells
[4] = substrate: CC[N+](CC)(CC)CC; experiment: cells, lysate or membranes named

| Molecule | Ki [1] [µM] | Ki [2] [µM] | Ki [3] [µM] | Km [4] [µM] |
| --- | --- | --- | --- | --- |
| C[n+]1ccc(-c2ccccc2)cc1 | 0.8 | 1.8 | – | – |
| CN/C(=N/CCSCc1nc[nH]c1C)NC#N [CIMETIDINE] | 5.7 | 9.4 | – | – |
| N=C(N)N [GUANIDINE] | 724 | 714 | – | – |
| CN1CCC[C@H]1c1cccnc1 [NICOTINE] | 64.3 | 50.5 | – | – |
| CNC(=O)c1cccnc1 [NICOTINYL METHYLAMIDE] | 669 | 403 | – | – |
| C=C[C@H]1C[N@@]2CC[C@H]1C[C@@H]2[C@@H](O)c1ccnc2ccc(OC)cc12 [QUINIDINE] | – | 19.1 | – | – |
| CC[N+](CC)(CC)CC [TETRYLAMMONIUM] | 46.6 | – | 52.2 | – |
| B1 | – | – | – | 38 |
| B2 | – | – | – | 45 |
